Measurements taken from patent US10676465B2, “GLP-1 receptor agonists and uses thereof” (Pfizer Inc., priority 2018, dated 2020).
pEC50: −log10 of the molar value. Where two headings read alike, the source gives them in different places.

Legend:
[1] = biological target: human GLP-1R (Homo sapiens, UniProt P43220, G168S); experiment: CHO GLP-1R Clone H6 - Assay 1 (HTRF cAMP agonist assay); type: cell-based; conditions: for pEC50: CHO GLP-1R Clone H6, cAMP HTRF, geometric mean; for Emax: CHO GLP-1R Clone H6, arithmetic mean, relative to saturating GLP-1 (1 μM)
Description: GLP-1R-mediated agonist activity was determined with a cell-based functional assay utilizing an HTRF (Homogeneous Time-Resolved Fluorescence) cAMP detection kit (cAMP HI Range Assay Kit; CisBio cat #62AM6PEJ) that measures cAMP levels in the cell. The method is a competitive immunoassay between native cAMP produced by the cells and exogenous cAMP labeled with the dye d2. The tracer binding is visualized by a mAb anti-cAMP labeled with Cryptate. The specific signal (i.e. energy transfer) is inversely proportional to the concentration of cAMP in either standard or experimental sample.
The human GLP-1R coding sequence (NCBI Reference Sequence NP_002053.3, including naturally-occurring variant Gly168Ser) was subcloned into pcDNA3 (Invitrogen) and a cell line stably expressing the receptor was isolated (designated Clone H6).
Cells were removed from cryopreservation, re-suspended in 40 mL of Dulbecco's Phosphate Buffered Saline (DPBS—Lonza Cat #17-512Q) and centrifuged at 800×g for 5 minutes at 22° C. The cell pellet was then re-suspended in 10 mL of growth medium [DMEM/F12 1:1 Mixture with HEPES, L-Gln, 500 mL (DMEM/F12 Lonza Cat #12-719F), 10% heat inactivated fetal bovine serum (Gibco Cat #16140-071), 5 mL of 100× Pen-Strep (Gibco Cat #15140-122), 5 mL of 100×L-Glutamine (Gibco Cat #25030-081) and 500 μg/mL Geneticin (G418) (Invitrogen #10131035)]. A 1 mL sample of the cell suspension in growth media was counted on a Becton Dickinson ViCell to determine cell viability and cell count per mL. The remaining cell suspension was then adjusted with growth media to deliver 2000 viable cells per well using a Matrix Combi Multidrop reagent dispenser, and the cells were dispensed into a white 384 well tissue culture treated assay plate (Corning 3570). The assay plate was then incubated for 48 hours at 37° C. in a humidified environment in 5% carbon dioxide.
Varying concentrations of each compound to be tested (in DMSO) were diluted in assay buffer (HBSS with Calcium/Magnesium (Lonza/BioWhittaker cat #10-527F)/0.1% BSA (Sigma Aldrich cat # A7409-1L)/20 mM HEPES (Lonza/BioWhittaker cat #17-737E) containing 100 μM 3-isobutyl-1-methylxanthin (IBMX; Sigma cat #15879). The final DMSO concentration is 1%.
After 48 hours, the growth media was removed from the assay plate wells, and the cells were treated with 20 μL of the serially diluted compound in assay buffer for 30 minutes at 37° C. in a humidified environment in 5% carbon dioxide. Following the 30 minute incubation, 10 μL of labeled d2 cAMP and 10 μL of anti-cAMP antibody (both diluted 1:20 in cell lysis buffer; as described in the manufacturer's assay protocol) were added to each well of the assay plate. The plates were then incubated at room temperature and after 60 minutes, changes in the HTRF signal were read with an Envision 2104 multi-label plate reader using excitation of 330 nm and emissions of 615 and 665 nm. Raw data were converted to nM cAMP by interpolation from a cAMP standard curve (as described in the manufacturer's assay protocol) and the percent effect was determined relative to a saturating concentration of the full agonist GLP-17-36 (1 μM) included on each plate. EC50 determinations were made from agonist dose-response curves analyzed with a curve fitting program using a 4-parameter logistic dose response equation.

[2] = biological target: human GLP-1R (Homo sapiens (Human), UniProt P43220, L260F); experiment: CHO GLP-1R Clone C6 - Assay 2 (HTRF cAMP agonist assay, low receptor density); conditions: for Emax: read-out: Assay 2 Emax (%), CHO GLP-1R Clone C6 (low receptor density), arithmetic mean, relative to saturating GLP-1 (1 μM); for EC50: Assay 2 EC50 (nM)
[3] = read-out: Assay 2 EC50, CHO GLP-1R Clone C6 (low receptor density), cAMP HTRF, geometric mean
[4] = CHO GLP-1R Clone C6 (low receptor density), cAMP HTRF, geometric mean

human GLP-1R (Homo sapiens, UniProt P43220, G168S), sequence (P43220 24-463 G168S limits assumed): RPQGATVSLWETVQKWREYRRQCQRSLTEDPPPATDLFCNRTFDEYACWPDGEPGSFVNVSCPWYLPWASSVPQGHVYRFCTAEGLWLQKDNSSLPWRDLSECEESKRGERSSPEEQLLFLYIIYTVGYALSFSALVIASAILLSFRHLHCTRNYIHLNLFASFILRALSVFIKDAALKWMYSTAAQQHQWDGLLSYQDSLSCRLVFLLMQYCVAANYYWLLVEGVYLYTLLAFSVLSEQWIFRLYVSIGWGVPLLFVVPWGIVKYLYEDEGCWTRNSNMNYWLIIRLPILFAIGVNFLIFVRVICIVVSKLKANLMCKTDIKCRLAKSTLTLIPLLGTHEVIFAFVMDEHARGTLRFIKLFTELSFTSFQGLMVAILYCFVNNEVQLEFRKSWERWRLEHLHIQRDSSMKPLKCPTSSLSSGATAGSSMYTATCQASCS
human GLP-1R (Homo sapiens (Human), UniProt P43220, L260F), sequence (P43220 24-463 L260F): as the sequence (P43220 24-463 G168S limits assumed) above, with S145G, L237F counted along it

SMILES | pEC50 [1] | Emax [1] | pEC50 [2, 3] | Emax [2] | EC50 [2, 4] | pEC50 ([2]; EC50 in Assay 2, CHO GLP-1R Clone C6, cAMP, geometric mean of replicates)
CC1(c2ccc(Cl)cc2F)Oc2cccc(C3CCN(Cc4nc5ccc(C(=O)O)cc5n4C[C@@H]4CCCO4)CC3)c2O1 (stereo partly drawn) [Example 79, 2-({4-[2-(4-chloro-2-fluorophenyl)-2-methyl-1,3-benzodioxol-4-yl]piperidin-1-yl}methyl)-1-[(2S)-tetrahydrofuran-2-ylmethyl]-1H-benzimidazole-6-carboxylic acid] | 8.85 | 85% | 7.68 | 85% | – | –
COCCn1c(C2CC23CCN(c2cccc4c2OC(C)(c2ccc(Cl)cc2F)O4)CC3)nc2ccc(C(=O)O)cc21 (single isomer, unassigned) [Example 15, 2-{6-[2-(4-Chloro-2-fluorophenyl)-2-methyl-1,3-benzodioxol-4-yl]-6-azaspiro[2.5]oct-1-yl}-1-(2-methoxyethyl)-1H-benzimidazole-6-carboxylic Acid] | < 4.74 | 100% | – | – | > 20000 nM | –
COCCn1c(CN2CCC(c3cccc4c3OC(C)(c3ccccc3C)O4)CC2)nc2ccc(C(=O)O)cc21 (stereo not shown) [Example 88, 1-(2-methoxyethyl)-2-({4-[2-methyl-2-(2-methylphenyl)-1,3-benzodioxol-4-yl]piperidin-1-yl}methyl)-1H-benzimidazole-6-carboxylic acid] | 7.77 | 86% | 6.44 | 91% | – | –
COCCn1c(CN2CCC(c3cccc4c3OC(C)(c3ccc(Cl)cc3)O4)CC2)nc2ccc(C(=O)O)cc21 (stereo not shown) [Example 33, 2-({4-[2-(4-chlorophenyl)-2-methyl-1,3-benzodioxol-4-yl]piperidin-1-yl}methyl)-1-(2-methoxyethyl)-1H-benzimidazole-6-carboxylic acid] | 8.59 | 85% | 7.00 | 86% | – | –
COCCn1c(CN2CCC(c3cccc4c3OC(C)(c3ccc(Cl)cc3F)O4)CC2)nc2ncc(C(=O)O)cc21 (stereo not shown) [Example 3, 2-({4-[2-(4-Chloro-2-fluorophenyl)-2-methyl-1,3-benzodioxol-4-yl]piperidin-1-yl}methyl)-1-(2-methoxyethyl)-1H-imidazo[4,5-b]pyridine-6-Carboxylic Acid] | 8.89 | 94% | 7.35 | 120% | – | –
O=C(O)c1ccc2nc(CN3CCC(c4cccc5c4O[C@@H](c4ccc(Cl)cc4F)O5)CC3)n(C[C@@H]3CCO3)c2c1 [Example 5, Ammonium 2-({4-[(2S)-2-(4-chloro-2-fluorophenyl)-1,3-benzodioxol-4-yl]piperidin-1-yl}methyl)-1-[(2S)-oxetan-2-ylmethyl]-1H-benzimidazole-6-carboxylate] | 8.89 | 89% | 7.64 | 97% | – | 7.70
CC1(c2ccc(Cl)cc2F)Oc2cccc(C3CCN(Cc4nc5ccc(C(=O)O)cc5n4CC4(O)CCC4)CC3)c2O1 (stereo not shown) [Example 72, 2-({4-[2-(4-chloro-2-fluorophenyl)-2-methyl-1,3-benzodioxol-4-yl]piperidin-1-yl}methyl)-1-[(1-hydroxycyclobutyl)methyl]-1H-benzimidazole-6-carboxylic acid] | 7.85 | 76% | 6.51 | 80% | – | –
COCCn1c(CN2CCC(c3cccc4c3OC(c3ccc(Cl)cc3F)O4)CC2)nc2ccc(C(=O)O)cc21 (stereo not shown) [Example 21, 2-({4-[2-(4-chloro-2-fluorophenyl)-1,3-benzodioxol-4-yl]piperidin-1-yl}methyl)-1-(2-methoxyethyl)-1H-benzimidazole-6-carboxylic acid] | < 4.70 | – | – | – | > 20000 nM | –
COCCn1c(CN2CCC(c3cccc4c3OC(C)(c3ccccc3Cl)O4)CC2)nc2ccc(C(=O)O)cc21 (stereo not shown) [Example 86, 2-({4-[2-(2-chlorophenyl)-2-methyl-1,3-benzodioxol-4-yl]piperidin-1-yl}methyl)-1-(2-methoxyethyl)-1H-benzimidazole-6-carboxylic acid] | 7.62 | 91% | 6.39 | 100% | – | –
COCCn1c(CN2CCC(c3cccc4c3OC(C)(c3ccc(OC)c(F)c3)O4)CC2)nc2ccc(C(=O)O)cc21 (stereo not shown) [Example 30, 2-({4-[2-(3-fluoro-4-methoxyphenyl)-2-methyl-1,3-benzodioxol-4-yl]piperidin-1-yl}methyl)-1-(2-methoxyethyl)-1H-benzimidazole-6-carboxylic acid] | 7.35 | 86% | 5.96 | 77% | – | –
CCn1cncc1Cn1c(CN2CCC(c3cccc4c3O[C@@](C)(c3ccc(Cl)cc3F)O4)CC2)nc2ccc(C(=O)O)cc21 (single isomer, unassigned) [Example 17, Ammonium 2-({4-[2-(4-chloro-2-fluorophenyl)-2-methyl-1,3-benzodioxol-4-yl]piperidin-1-yl}methyl)-1-[(I-ethyl-1H-imidazol-5-yl)methyl]-1H-benzimidazole-6-carboxylate] | 10.10 | – | 8.96 | – | – | –
